This passage reports T/C results from PubChem BioAssay AID330 (DTP/NCI, 2004).

Where “and” joins values, the source holds several entries; their conditions need not be identical. Identical values can stand only once. Toxic doses and inconclusive results are not listed.

This assay has as its system P388 leukemia ip, CD2F1 mice, survival T/C. The experiment in a line: NCI In Vivo Anticancer Drug Screen. Data for tumor model P388 Leukemia (intraperitoneal) in CD2F1 (CDF1) mice. The following applies: endpoint: median survival time, higher = longer survival. Summed up: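 Mice carrying the transplanted tumor received test compound or vehicle. Survival was recorded in each group, and the value is the treated-group measurement divided by that of the vehicle-treated control group.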

The mark [1] stands for this setting: dose: 25.0 mg/kg/injection, schedule: Q01DX005 (ip), vehicle: Klucel (hydroxypropylcellulose) (HPC).
The mark [2] stands for this setting: dose: 50.0 mg/kg/injection, schedule: Q01DX005 (ip), vehicle: Klucel (hydroxypropylcellulose) (HPC).
[3] abbreviates: dose: 100.0 mg/kg/injection, schedule: Q01DX005 (ip), vehicle: Klucel (hydroxypropylcellulose) (HPC).
Setting [4] is: dose: 200.0 mg/kg/injection, schedule: Q01DX005 (ip), vehicle: Klucel (hydroxypropylcellulose) (HPC).
Setting [5] is: dose: 50.0 mg/kg/injection, schedule: Q01DX009 (ip), vehicle: saline with Tween-80.
Where [6] appears, read: dose: 100.0 mg/kg/injection, schedule: Q01DX009 (ip), vehicle: saline with Tween-80.
The mark [7] stands for this setting: dose: 200.0 mg/kg/injection, schedule: Q01DX009 (ip), vehicle: saline with Tween-80.
The mark [8] stands for this setting: dose: 60.0 mg/kg/injection, schedule: Q01DX005 (ip), vehicle: saline.
Where [9] appears, read: dose: 240.0 mg/kg/injection, schedule: Q01DX005 (ip), vehicle: saline.
Setting [10] is: dose: 50.0 mg/kg/injection, schedule: Q01DX005 (ip), vehicle: saline.
Setting [11] is: dose: 100.0 mg/kg/injection, schedule: Q01DX005 (ip), vehicle: saline.
[12] abbreviates: dose: 200.0 mg/kg/injection, schedule: Q01DX005 (ip), vehicle: saline.
Where [13] appears, read: dose: 12.5 mg/kg/injection, schedule: Q01DX005 (ip), vehicle: Klucel (hydroxypropylcellulose) (HPC).
Where [14] appears, read: dose: 60.0 mg/kg/injection, schedule: Q01DX005 (ip), vehicle: saline with Tween-80.
[15] abbreviates: dose: 120.0 mg/kg/injection, schedule: Q01DX005 (ip), vehicle: saline with Tween-80.
The mark [16] stands for this setting: dose: 6.25 mg/kg/injection, schedule: Q01DX009 (ip), vehicle: saline.
Setting [17] is: dose: 12.5 mg/kg/injection, schedule: Q01DX009 (ip), vehicle: saline.
[18] abbreviates: dose: 25.0 mg/kg/injection, schedule: Q01DX009 (ip), vehicle: saline.

`COc1c2c(cc3c1C(C1OC(=O)c4c1c([N+](=O)[O-])c(OC)c(OC)c4[N+](=O)[O-])N(C)CC3)OCO2` (stereo not drawn): the T/C under setting [1] is 101 % of control, the T/C under setting [2] is 92 % of control, the T/C under setting [3] was 93 % of control and the T/C under setting [4] is 91 % of control.
As to `CS(C)=O.CS(C)=O.[Cl][Rh]([Cl])([Cl])[Cl]`, the T/C is 100 % of control (dose: 12.5 mg/kg/injection, schedule: Q04DX003 (ip), vehicle: saline); 109 % of control (dose: 25.0 mg/kg/injection, schedule: Q04DX003 (ip), vehicle: saline); 118 % of control (dose: 50.0 mg/kg/injection, schedule: Q04DX003 (ip), vehicle: saline).
In the case of `CC(=O)SCC(C)C(=O)N1CCCC1C(=O)NC(Cc1ccccc1)C(=O)O` (stereo not drawn), the T/C by setting is: under setting [2], 110 % of control; under setting [3], 98 % of control; under setting [4], 104 % of control.
`CC12CCC(C(=O)C1=O)C2(C)C` (stereo not drawn): the T/C is 102 % of control under setting [5]; 93 % of control under setting [6]; 95 % of control under setting [7]; 97 % of control (dose: 400.0 mg/kg/injection, schedule: Q01DX009 (ip), vehicle: saline with Tween-80).
Turning to `CCOC(=O)C1CCc2ccccc2N1` (stereo not drawn), the T/C was 99 % of control (dose: 50.0 mg/kg/injection, schedule: Q01DX005 (ip), vehicle: saline with Tween-80); 103 % of control (dose: 100.0 mg/kg/injection, schedule: Q01DX005 (ip), vehicle: saline with Tween-80); 104 % of control (dose: 200.0 mg/kg/injection, schedule: Q01DX005 (ip), vehicle: saline with Tween-80).
On to `O=S(=O)(O)c1ccc(-c2nnc(-c3ccccn3)nc2-c2ccc(S(=O)(=O)O)o2)o1`, for which the T/C runs as follows: under setting [8], 102 % of control; (dose: 120.0 mg/kg/injection, schedule: Q01DX005 (ip), vehicle: saline) 97 % of control; under setting [9], 102 % of control.
Regarding `Brc1ccc(N=C=C(c2ccccc2)c2ccccc2)cc1`, the T/C reads like this: under setting [5], 95 % of control; under setting [6], 100 % of control; under setting [7], 104 % of control.
On to `COc1cc(CC2C(CO)OC(=O)C2Cc2ccc3c(c2)OCO3)cc(OC)c1OC` (stereo not drawn), for which the T/C is, setting by setting: (dose: 50.0 mg/kg/injection, schedule: Q04DX002 (ip), vehicle: acetone) 98 % of control; (dose: 100.0 mg/kg/injection, schedule: Q04DX002 (ip), vehicle: acetone) 98 % of control; (dose: 200.0 mg/kg/injection, schedule: Q04DX002 (ip), vehicle: acetone) 98 % of control.
For `O=C(O)c1ccc[c]([Sb]2(=[O])[O]C(CO)C(C(O)C(O)C(=O)O)[O]2)c1` (stereo not drawn), the T/C runs as follows: under setting [10], 100 % of control; under setting [11], 100 % of control; under setting [12], 104 % of control.
Turning to `[Cl][Zn][Cl].c1ccc2[nH]cnc2c1.c1ccc2[nH]cnc2c1`, the T/C under setting [13] is 100 % of control, the T/C under setting [1] was 108 % of control and the T/C under setting [2] is 100 % of control.
Turning to `CCCCS(=O)(=O)N/N=C/C(=O)O`, the T/C reads like this: (dose: 6.25 mg/kg/injection, schedule: Q01DX009 (ip), vehicle: water) 119 % of control; (dose: 12.5 mg/kg/injection, schedule: Q01DX009 (ip), vehicle: water) 124 % of control; (dose: 50.0 mg/kg/injection, schedule: Q01DX009 (ip), vehicle: water) 162 % of control; (dose: 100.0 mg/kg/injection, schedule: Q01DX009 (ip), vehicle: water) 173 % of control.
As for `NCC1OC(OC2C(CO)OC(OC3C(O)C(N)CC(N)C3OC3OC(CN)C(O)C(O)C3N)C2O)C(N)C(O)C1O` (stereo not drawn), the T/C was 100 % of control (dose: 100.0 mg/kg/injection, schedule: Q01DX001 (ip), vehicle: saline) and 96 % of control (dose: 200.0 mg/kg/injection, schedule: Q01DX001 (ip), vehicle: saline).
With `Cc1ccc(S(=O)OC2CC(C)CCC2C(C)C)cc1` (stereo not drawn), the T/C was 100 % of control (dose: 50.0 mg/kg/injection, schedule: Q01DX009 (ip), vehicle: Klucel (hydroxypropylcellulose) (HPC)); 101 % of control (dose: 100.0 mg/kg/injection, schedule: Q01DX009 (ip), vehicle: Klucel (hydroxypropylcellulose) (HPC)); 100 % of control (dose: 200.0 mg/kg/injection, schedule: Q01DX009 (ip), vehicle: Klucel (hydroxypropylcellulose) (HPC)).
In the case of `Cc1ccc(NC(=O)N2c3ccccc3SC23CCCCC3)c(C)c1`, the T/C is 102 % of control under setting [5], 105 % of control under setting [6] and 103 % of control under setting [7].
As for `CCCCc1ccc(Nc2ccc(Nc3ccc(CCCC)cc3S(=O)(=O)O)c3c2C(=O)c2ccccc2C3=O)c(S(=O)(=O)O)c1`, the T/C reads like this: under setting [5], 94 % of control; under setting [6], 90 % of control; under setting [7], 94 % of control.
In the case of `CC(C)C1=CC(=O)C2=C(CCC3C4=C(CCC23C)C(=O)OC4)C1=O` (stereo not drawn), the T/C runs as follows: (dose: 6.25 mg/kg/injection, schedule: Q01DX009 (ip), vehicle: DMSO) 105 % of control; (dose: 12.5 mg/kg/injection, schedule: Q01DX009 (ip), vehicle: DMSO) 113 % of control; (dose: 25.0 mg/kg/injection, schedule: Q01DX009 (ip), vehicle: DMSO) 98 % of control.
As to `Cc1ncc(Cn2c(C)c(CCO)sc2=S)c(N)n1`, the T/C was 99 % of control (dose: 50.0 mg/kg/injection, schedule: Q01DX009 (ip), vehicle: saline); 101 % of control (dose: 100.0 mg/kg/injection, schedule: Q01DX009 (ip), vehicle: saline); 108 % of control (dose: 200.0 mg/kg/injection, schedule: Q01DX009 (ip), vehicle: saline).
`CC(=O)OCC1OC(n2cnc3c(=S)nc[nH]c32)C(OC(C)=O)C1OC(C)=O` (stereo not drawn): the T/C (dose: 100.0 mg/kg/injection, schedule: Q04DX003 (ip), vehicle: saline with Tween-80) is 109 % of control; the T/C (dose: 200.0 mg/kg/injection, schedule: Q04DX003 (ip), vehicle: saline with Tween-80) is 109 % of control; the T/C (dose: 400.0 mg/kg/injection, schedule: Q04DX003 (ip), vehicle: saline with Tween-80) was 118 % of control.
As to `CC1(CO)CCCC1NCCNC1CCCC1(C)CO` (stereo not drawn), the T/C was 102 % of control under setting [14] and 105 % of control under setting [15].
As to `CC(C)(C)C(=O)Oc1cc2c(cc1OC(=O)C(C)(C)C)C(c1ccccc1)CNCC2` (stereo not drawn), the T/C is 96 % of control (dose: 25.0 mg/kg/injection, schedule: Q01DX009 (ip), vehicle: saline with Tween-80) and 98 % of control under setting [5].
As for `COc1cc(/C=C/c2ccc(O)c(OC)c2)cc(OC)c1`, the T/C (dose: 6.25 mg/kg/injection, schedule: Q01DX005 (ip), vehicle: Klucel (hydroxypropylcellulose) (HPC)) was 104 % of control; the T/C under setting [13] is 107 % of control; the T/C under setting [1] is 100 % of control; the T/C under setting [2] is 104 % of control and 108 % of control; the T/C under setting [3] is 95 % of control; the T/C under setting [4] was 88 % of control.
In the case of `CCOC(=O)Oc1ccc(CC([NH-])C(=O)O)cc1.CCOC(=O)Oc1ccc(CC([NH-])C(=O)O)cc1.[Cu+2]` (stereo not drawn), the T/C reads like this: under setting [16], 100 % of control; under setting [17], 100 % of control; under setting [18], 100 % of control.
On to `Nc1ncc2c(n1)-c1ccccc1OC2`, for which the T/C was 92 % of control under setting [14]; 103 % of control under setting [15]; 95 % of control (dose: 240.0 mg/kg/injection, schedule: Q01DX005 (ip), vehicle: saline with Tween-80).
`CC(C)(C)OC(=O)NC(CCCCN)C(=O)O` (stereo not drawn): the T/C is 103 % of control under setting [10], 100 % of control under setting [11] and 100 % of control under setting [12].
With `Cc1ccc(C(=O)CCl)c(C)c1`, the T/C is, setting by setting: (dose: 12.5 mg/kg/injection, schedule: Q04DX003 (ip), vehicle: saline with Tween-80) 110 % of control; (dose: 25.0 mg/kg/injection, schedule: Q04DX003 (ip), vehicle: saline with Tween-80) 105 % of control; (dose: 50.0 mg/kg/injection, schedule: Q04DX003 (ip), vehicle: saline with Tween-80) 110 % of control.
For the molecule `ClCCCCOCBr`, the T/C by setting is: under setting [8], 93 % of control; under setting [9], 87 % of control.
As for `ClCCN(CCCl)c1ccc(CN2CCCCCC2)cc1`, the T/C under setting [16] was 111 % of control, the T/C under setting [17] was 114 % of control and the T/C under setting [18] was 116 % of control.
